In patent US6355799B1, “Substituted benzene compounds, process for their preparation, and herbicidal and defoliant compositions containing them” (ISK Americas Incorporated, priority 1997, dated 2002):

Columns and labels:
Type in all cases: in vivo
[1] = system: redroot pigweed (Amaranthus retroflexus, AMARE); assay: Pre-emerge test, greenhouse herbicide activity screening; conditions: pre-emerge, 14 days after application, rating scale 0-100
Method in brief: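 Herbicidal damage is scored 0 (none) to 100 (complete plant death) two weeks after a simulated field spray. Rates span 15–1000 g ai/ha, delivered in acetone at 187 l/ha. For post-emergence treatments, plants have 2–3 leaves and the spray carries 0.25% v/v non-ionic surfactant.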

[2] = system: barnyardgrass (Echinochloa crus-galli, ECHCG); assay: as above; conditions: pre-emerge, 14 days after application, rating scale 0-100
Method in brief: (§1)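 Fourteen days after spraying, crop and weed injury was graded visually from 0, no effect, to 100, every plant dead. Test substances were dissolved in acetone and applied at 15–1000 g ai/ha with a flat-fan nozzle. Application was either pre-emergence, one day after sowing, or post-emergence at the 2–3 leaf stage.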

[3] = system: green foxtail (Setaria viridis, SETVI); assay: as above; conditions: pre-emerge, 14 days after application, rating scale 0-100
Method in brief: as §1

[4] = system: ivyleaf morningglory (Ipomoea hederacea, IPOHE); assay: as above; conditions: pre-emerge, 14 days after application, rating scale 0-100
Method in brief: as §1

[5] = system: johnsongrass (Sorghum halepense, SORHA); assay: as above; conditions: pre-emerge, 14 days after application, rating scale 0-100
Method in brief: as §1

[6] = system: lambsquarters (Chenopodium album, CHEAL); assay: as above; conditions: pre-emerge, 14 days after application, rating scale 0-100
Method in brief: as §1

[7] = system: large crabgrass (Digitaria sanguinalis, DIGSA); assay: as above; conditions: pre-emerge, 14 days after application, rating scale 0-100
Method in brief: as §1

[8] = system: sicklepod (Cassia obtusifolia, CASOB); assay: as above; conditions: pre-emerge, 14 days after application, rating scale 0-100
Method in brief: as §1

[9] = system: velvetleaf (Abutilon theophrasti, ABUTH); assay: as above; conditions: pre-emerge, 14 days after application, rating scale 0-100
Method in brief: as §1

[10] = system: field corn (Zea mays L., var. Dekalb 535, CORN); assay: Pre-emerge test, crop safety; conditions: pre-emerge, 14 days after application, rating scale 0-100
Method in brief: (§2)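 Compounds in acetone were track-sprayed at 187 l/ha, 15–1000 g ai/ha, onto sandy loam pots. Pre-emerge seeds were sown one day before spraying, with surface watering afterwards. Post-emerge plants were at the 2–3 leaf stage and sprayed with 0.25% v/v non-ionic surfactant. Injury was rated 0–100 at 14 days.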

[11] = system: upland rice (Oryza sp., var. Tebonnet, RICE); assay: Pre-emerge test, crop safety; conditions: pre-emerge, 14 days after application, rating scale 0-100
Method in brief: as §2

[12] = system: barnyardgrass (Echinochloa crus-galli, ECHCG); assay: Post-emerge test, greenhouse herbicide activity screening; conditions: post-emerge, 14 days after application, rating scale 0-100
Method in brief: (§3)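 Each test used a mechanized track sprayer delivering 187 l/ha of acetone solution at 15–1000 g ai/ha. Post-emerge foliage at 2–3 leaves was treated with added 0.25% v/v non-ionic surfactant and bottom-watered only. Injury was assessed on day 14, where 100 means total kill.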

[13] = system: common ragweed (Ambrosia artemisizfolia L., AMBEL); assay: as above; conditions: post-emerge, 14 days after application, rating scale 0-100
Method in brief: as §3

[14] = system: green foxtail (Setaria viridis, SETVI); assay: as above; conditions: post-emerge, 14 days after application, rating scale 0-100
Method in brief: as §3

[15] = system: ivyleaf morningglory (Ipomoea hederacea, IPOHE); assay: as above; conditions: post-emerge, 14 days after application, rating scale 0-100
Method in brief: as §3

[16] = system: johnsongrass (Sorghum halepense, SORHA); assay: as above; conditions: post-emerge, 14 days after application, rating scale 0-100
Method in brief: as §3

[17] = system: lambsquarters (Chenopodium album, CHEAL); assay: as above; conditions: post-emerge, 14 days after application, rating scale 0-100
Method in brief: as §3

[18] = system: large crabgrass (Digitaria sanguinalis, DIGSA); assay: as above; conditions: post-emerge, 14 days after application, rating scale 0-100
Method in brief: as §3

[19] = system: redroot pigweed (Amaranthus retroflexus, AMARE); assay: as above; conditions: post-emerge, 14 days after application
Method in brief: as §3

[20] = system: sicklepod (Cassia obtusifolia, CASOB); assay: as above; conditions: post-emerge, 14 days after application, rating scale 0-100
Method in brief: as §3

[21] = system: velvetleaf (Abutilon theophrasti, ABUTH); assay: as above; conditions: post-emerge, 14 days after application, rating scale 0-100
Method in brief: as §3

[22] = system: field corn (Zea mays L., var. Dekalb 535, CORN); assay: Post-emerge test, crop safety; conditions: post-emerge, 14 days after application, rating scale 0-100
Method in brief: as §1

[23] = system: upland rice (Oryza sp., var. Tebonnet, RICE); assay: Post-emerge test, crop safety; conditions: post-emerge, 14 days after application, rating scale 0-100
Method in brief: as §1

Compound: CCOC(=O)C(Cl)Cc1c(OC)c(Cl)cc(F)c1-c1nn(C)c(C(F)(F)F)c1Cl (stereo not shown) [14-56]
- phytotoxicity rating AMARE ([1]; 63 g ai/ha): 100
- phytotoxicity rating AMARE ([1]; 250 g ai/ha): 100
- phytotoxicity rating ECHCG ([2]; 63 g ai/ha): 0
- phytotoxicity rating ECHCG ([2]; 250 g ai/ha): 0
- phytotoxicity rating SETVI ([3]; 63 g ai/ha): 20
- phytotoxicity rating SETVI ([3]; 250 g ai/ha): 70
- phytotoxicity rating IPOHE ([4]; 63 g ai/ha): 0
- phytotoxicity rating IPOHE ([4]; 250 g ai/ha): 0
- phytotoxicity rating SORHA ([5]; 63 g ai/ha): 0
- phytotoxicity rating SORHA ([5]; 250 g ai/ha): 30
- phytotoxicity rating CHEAL ([6]; 63 g ai/ha): 80
- phytotoxicity rating CHEAL ([6]; 250 g ai/ha): 100
- phytotoxicity rating DIGSA ([7]; 63 g ai/ha): 30
- phytotoxicity rating DIGSA ([7]; 250 g ai/ha): 40
- phytotoxicity rating CASOB ([8]; 63 g ai/ha): 0
- phytotoxicity rating CASOB ([8]; 250 g ai/ha): 10
- phytotoxicity rating ABUTH ([9]; 63 g ai/ha): 30
- phytotoxicity rating ABUTH ([9]; 250 g ai/ha): 60
- phytotoxicity rating CORN ([10]; 63 g ai/ha): 0
- phytotoxicity rating CORN ([10]; 250 g ai/ha): 0
- phytotoxicity rating RICE ([11]; 63 g ai/ha): 10
- phytotoxicity rating RICE ([11]; 250 g ai/ha): 10
- Post-emerge Herbicidal Activity ECHCG (phytotoxicity rating) ([12]; 63 g ai/ha): 20
- Post-emerge Herbicidal Activity ECHCG (phytotoxicity rating) ([12]; 250 g ai/ha): 80
- Post-emerge Herbicidal Activity AMBEL (phytotoxicity rating) ([13]; 63 g ai/ha): 90
- Post-emerge Herbicidal Activity AMBEL (phytotoxicity rating) ([13]; 250 g ai/ha): 80
- Post-emerge Herbicidal Activity SETVI (phytotoxicity rating) ([14]; 63 g ai/ha): 30
- Post-emerge Herbicidal Activity SETVI (phytotoxicity rating) ([14]; 250 g ai/ha): 70
- Post-emerge Herbicidal Activity IPOHE (phytotoxicity rating) ([15]; 63 g ai/ha): 100
- Post-emerge Herbicidal Activity IPOHE (phytotoxicity rating) ([15]; 250 g ai/ha): 100
- Post-emerge Herbicidal Activity SORHA (phytotoxicity rating) ([16]; 63 g ai/ha): 30
- Post-emerge Herbicidal Activity SORHA (phytotoxicity rating) ([16]; 250 g ai/ha): 70
- Post-emerge Herbicidal Activity CHEAL (phytotoxicity rating) ([17]; 63 g ai/ha): 99
- Post-emerge Herbicidal Activity CHEAL (phytotoxicity rating) ([17]; 250 g ai/ha): 100
- Post-emerge Herbicidal Activity DIGSA (phytotoxicity rating) ([18]; 63 g ai/ha): 10
- Post-emerge Herbicidal Activity DIGSA (phytotoxicity rating) ([18]; 250 g ai/ha): 50
- Post-emerge Herbicidal Activity AMARE (phytotoxicity rating) ([19]; 63 g ai/ha, rating scale 0-100 (0 no damage, 100 complete death)): 100
- Post-emerge Herbicidal Activity AMARE (phytotoxicity rating) ([19]; 250 g ai/ha, rating scale 0-100): 100
- Post-emerge Herbicidal Activity CASOB (phytotoxicity rating) ([20]; 63 g ai/ha): 30
- Post-emerge Herbicidal Activity CASOB (phytotoxicity rating) ([20]; 250 g ai/ha): 40
- Post-emerge Herbicidal Activity ABUTH (phytotoxicity rating) ([21]; 63 g ai/ha): 70
- Post-emerge Herbicidal Activity ABUTH (phytotoxicity rating) ([21]; 250 g ai/ha): 100
- Post-emerge Herbicidal Activity CORN (crop damage rating) ([22]; 63 g ai/ha): 10
- Post-emerge Herbicidal Activity CORN (crop damage rating) ([22]; 250 g ai/ha): 30
- Post-emerge Herbicidal Activity RICE (crop damage rating) ([23]; 63 g ai/ha): 0
- Post-emerge Herbicidal Activity RICE (crop damage rating) ([23]; 250 g ai/ha): 25
